Assays:
[1] = Half-life determination in PBS; type: physicochemical; conditions: PBS, pH 7.4
Description: […] Samples were analysed by HPLC-MS/MS and corresponding peak areas were recorded for each analyte. The ratio of precursor compound remaining after each time-point relative to the amount present at time 0, expressed as a percentage, is reported as chemical stability.

[2] = in vitro; conditions: human, plasma
Description: (§1) At the end of incubation at each of the time points (0, 0.5, 1, 1.5, 2 h), acetonitrile was added to the incubation mixture followed by centrifugation. Samples were analysed by HPLC-MS/MS and peak areas were recorded for each analyte. The area of precursor compound remaining after each of the time points relative to the amount remaining at time 0, expressed as a percentage, was calculated. Subsequently, the t1/2 is estimated from the slope of the initial linear range of the logarithmic curve of compound remaining (%) versus time, assuming first-order kinetics.

[3] = Half-life determination in human plasma; conditions: UoBern01 at 1.00E-06 M
Description: as §1

[4] = biological target: T1, β-arrestin2 recruitment to hA3R (Homo sapiens, UniProt P0DMS8); experiment: BRET β-arrestin2 recruitment to A3R, HEK 293T; type: cell-based
T1 construct: expressed in transfected cells; host or cells: HEK 293T (ATCC CRL-3216), transient
T1 sequence (P0DMS8 whole entry): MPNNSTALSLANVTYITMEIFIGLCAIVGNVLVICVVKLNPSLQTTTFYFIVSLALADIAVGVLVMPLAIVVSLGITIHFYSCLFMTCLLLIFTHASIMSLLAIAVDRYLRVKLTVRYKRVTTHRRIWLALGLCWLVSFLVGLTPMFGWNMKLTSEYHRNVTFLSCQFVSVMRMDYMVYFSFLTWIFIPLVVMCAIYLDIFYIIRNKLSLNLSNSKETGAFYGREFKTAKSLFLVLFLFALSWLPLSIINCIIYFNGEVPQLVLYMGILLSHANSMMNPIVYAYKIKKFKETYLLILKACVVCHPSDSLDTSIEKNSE

[5] = biological target: T2, rA3R (Rattus norvegicus, UniProt P28647); experiment: cAMP inhibition at rA3R (Flp-In-CHO); type: cell-based
T2 construct: expressed in transfected cells; host or cells: Flp-In-CHO (ThermoFisher R75807), pcDNA5/FRT
T2 sequence (P28647 1-320): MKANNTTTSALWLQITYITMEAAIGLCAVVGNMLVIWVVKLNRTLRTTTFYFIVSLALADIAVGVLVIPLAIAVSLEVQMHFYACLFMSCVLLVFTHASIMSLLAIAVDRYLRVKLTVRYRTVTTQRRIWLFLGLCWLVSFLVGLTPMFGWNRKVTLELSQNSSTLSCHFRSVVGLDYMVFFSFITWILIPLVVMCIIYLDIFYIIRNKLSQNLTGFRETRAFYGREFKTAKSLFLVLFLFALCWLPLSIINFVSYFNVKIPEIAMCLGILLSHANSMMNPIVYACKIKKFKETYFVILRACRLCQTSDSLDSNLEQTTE
Description: Cell lines were maintained using standard subculturing routines as guided by the European Collection of Cell Culture (ECACC) and checked annually for mycoplasma infection using an EZ-PCR mycoplasma test kit from Biological Industries (Kibbutz Beit-Haemek, Israel). To investigate the signalling properties of the rat A3R (rA3R) and mutants of the human A1R (hA1R), stable cell lines were generated using Flp-In-CHO cells (ThermoFisher - R75807). Untagged hA1R from sigNanoLuciferase (Nluc)-A1R in pcDNA3.1+ and untagged rA3R from sigNluc-A3R in pcDNA3.1 + (both gifted by Dr Steve Briddon (University of Nottingham)) were cloned into the pcDNA5/FRT expression vector (Thermo Fisher Scientific). Mutations within the hA1R were made using the QuikChange Lightening Site-Directed Mutagenesis Kit (Agilent Technologies) in accordance with the manufacturer’s instructions. Constructs for generating Goa/b interfering and scrambled peptides were generated by PCR and cloned into the BamHI/HindIII site of pcDNA3.1- as described in Gilchrist et al.[60],. Prior to the initiator codon a Kozak sequence was included for enhanced translation. The peptide sequences used were: for Goa […], for Gob […], and for the scrambled peptide […] was used. Constructs were sequenced to confirm fidelity. Flp-In-CHO cells were generated through co-transfection of the cell line with pcDNA5/FRT expression vector (Thermo Fisher Scientific) containing the WT or mutant hA1R, or rA3R, and the Flp recombinase expressing plasmid, pOG44 (Thermo Fisher Scientific), in accordance with the manufacturer’s instructions. […] CHO cell lines expressing ARs of interest (including mutants of the hA1R) were routinely cultured in Ham’s F-12 nutrient mix supplemented with 10% foetal bovine serum (FBS), at 37 °C with 5% CO2, in a humidified atmosphere.

[6] = system: native presynaptic A1Rs, rat hippocampal slices; experiment: Extracellular fEPSP recording, inhibition of excitatory synaptic transmission in hippocampal slices; type: cell-based
Description: Rats were kept on a 12-hour light-dark cycle with slices made 90 min after entering the light cycle. […] The brain was removed, cut down the midline and the two sides of the brain stuck down to a metal base plate using cyanoacrylate glue. […] Slices were stored at 34 °C for 1–6 h in aCSF (1 mM MgCl2, 2 mM CaCl2) before use.
A slice was transferred to the recording chamber, submerged in aCSF and perfused at 4–6 ml min^−1 (32 ± 0.5 °C). The slice was placed on a grid allowing perfusion above and below the tissue and all tubing was gastight (to prevent loss of oxygen). […] Field excitatory postsynaptic potentials (fEPSPs) were evoked with either an isolated pulse stimulator model 2100 (AM Systems, WA) or ISO-Flex (AMPI, Jerusalem, Israel). For fEPSPs a 10–20 min baseline was recorded at a stimulus intensity that gave 40-50% of the maximal response. […] For fEPSP slope, a 1 ms linear region after the fibre volley was measured. Extracellular recordings were made independently on two electrophysiology rigs.
Statistical significance was tested as indicated in the text using paired or unpaired two-tailed t-tests or one-way or two-way ANOVAs with repeated measures (RM) as appropriate. Bonferroni corrections for multiple comparisons were performed. All in vitro cell signalling assay data was analysed using Prism 8.4 (Graphpad software, San Diego, CA), with all concentration-response curves being fitted using a 3 parameter logistic equation to calculate response range and IC50. All cAMP data was normalised to a forskolin concentration-response curve ran in parallel to each assay.

[7] = system: frog heart; experiment: Isolated frog heart preparation, heart rate; conditions: adenosine 30 µM
Description: Young adult male Xenopus leavis frogs were obtained from Portsmouth Xenopus Resource Centre. […] The animals were dissected to reveal the heart and the pericardium was carefully removed. Heart contractions were measured with a force transducer (AD instruments). Heart rate was acquired via a PowerLab 26 T (AD instruments) controlled by LabChart 7 (AD instruments). The heart was regularly washed with Ringer solution and drugs were applied directly to the heart.

[8] = biological target: T2, rA3R; experiment: NanoBRET competition binding with AV039; conditions: displacement of AV039; read-out: pKi rA3R (converted)
Description: Here data was fitted with the ‘two-site Ki model’, build into Prism to determine high affinity and low affinity values for the unlabelled agonists. […] BRET was measured following the addition of the Nluc substrate, Furimazine (0.1 μM).

[9] = system: heart rate and mean arterial blood pressure; experiment: Urethane-anaesthetised rat, heart rate and arterial blood pressure; conditions: adenosine 1 mg kg^−1 IV
Description: Anaesthesia was induced in adult male Sprague–Dawley rats (230-330 g) with isofluorane (2–4%; Piramal Healthcare). The femoral vein was catheterised for drug delivery. Anaesthesia was maintained with urethane (1.2–1.7 g kg^−1; Sigma) in sterile saline delivered via the femoral vein catheter. […] The trachea was cannulated and the femoral artery catheterised, and both were connected to pressure transducers (Digitimer) to record respiratory airflow and arterial blood pressure, respectively. Blood pressure and airflow signals were amplified using the NeuroLog system (Digitimer) connected to a micro1401 interface and acquired on a computer using Spike2 software (v7.08a; Cambridge Electronic Design). […] Airflow measurements were used to calculate: tidal volume (VT; mL; pressure sensors were calibrated with a 3 mL syringe), and respiratory frequency (f; breaths min^−1; BrPM). Minute ventilation (VE; mL min^−1) was calculated as f × VT.
Cardiovascular and respiratory parameters were allowed to stabilise before experiments began. A1R agonists were administered by intravenous (IV) injection and the changes in HR, MAP, f, VT, and VE were measured. […] All injections were administered IV as a 350 µl·kg^-1 bolus.

[10] = system: CA1 pyramidal cells (Goa / Gob signalling); experiment: Whole-cell voltage-clamp, adenosine-induced outward current with intracellular G protein interfering peptides; type: cell-based, rat; conditions: adenosine 10 µM; control conditions
Description: A slice was transferred to the recording chamber and perfused at 3 ml min^−1 with aCSF at 32 ± 0.5 °C. Slices were visualised using IR-DIC optics with an Olympus BX151W microscope (Scientifica) and a CCD camera (Hitachi). […] Voltage and current recordings were obtained using an Axon Multiclamp 700B amplifier (Molecular Devices, USA) and digitised at 20 KHz. Data acquisition and analysis was performed using pClamp 10 (Molecular Devices, USA). For voltage-clamp experiments, CA1 pyramidal cells were held at −60 mV. Peptides to interfere with G protein signalling were introduced via the patch pipette into the recorded cell.
Drugs were made up as stock solutions (1-10 mM) and then diluted in aCSF or saline on the day of use. […] MRS1523 was purchased from Cayman Chemicals (Cambridge Bioscience Ltd., Cambridge UK). […] CA200645 and peptides for interfering with G protein signalling were obtained from Hello Bio (Bristol, UK) and were based on published sequences. […] The scrambled version was […]. […] Peptides were made up as stock solutions (2 mM) and stored at −20 °C. The stock solutions were dissolved in filtered intracellular solution just before use.

[11] = incubation 0 minutes, UoBern01 at 1.00E-06 M
[12] = incubation 60 minutes, UoBern01 at 1.00E-06 M
[13] = incubation 120 minutes, UoBern01 at 1.00E-06 M

For `CC(C)[N+](C)(CCOC(=O)C1c2ccccc2Oc2ccccc21)C(C)C` [Propantheline], which “Mean / Half-Life” value ([1]; UoBern01 at 1.00E-06 M) is on record?
Its value is >120 min.

What about the “1st / % Compound Remaining” value [1, 11] of the same compound?
Its value is 100%.

What about the “2nd / % Compound Remaining” value [1, 11] of the same compound?
The value was 100%.

What about the “Mean / % Compound Remaining” value [1, 11] of the same compound?
Its value is 100%.

And the “1st / % Compound Remaining” value ([1]; incubation 30 minutes)?
Its value is 95.1%.

What about the “2nd / % Compound Remaining” value ([1]; incubation 30 minutes) of the same compound?
Its value is 97.9%.

What about the “Mean / % Compound Remaining” value ([1]; incubation 30 minutes) of the same compound?
The value was 96.5%.

And the “1st / % Compound Remaining” value [1, 12]?
Its value is “{129.3} %”.

What about the “2nd / % Compound Remaining” value [1, 12] of the same compound?
Its value is 96.1%.

And the “Mean / % Compound Remaining” value [1, 12]?
The value was 96.1%.

What about the “1st / % Compound Remaining” value ([1]; incubation 90 minutes) of the same compound?
Its value is 86.5%.

And the “2nd / % Compound Remaining” value ([1]; incubation 90 minutes)?
The value was 89.2%.

What about the “Mean / % Compound Remaining” value ([1]; incubation 90 minutes) of the same compound?
Its value is 87.8%.

And the “1st / % Compound Remaining” value [1, 13]?
The value was “{72.3} %”.

And the “2nd / % Compound Remaining” value [1, 13]?
Its value is 76.6%.

And the “Mean / % Compound Remaining” value [1, 13]?
The value was 76.6%.

What about the half-life ([1]; read-out: 1st / Half-Life) of the same compound?
Its half-life is > 120 min.

What about the half-life [2] of the same compound?
Its half-life is 46.9 min.

And the “2nd / Half-Life” value [3]?
Its value is 50.4 min.

And the “Mean / Half-Life” value [3]?
The value was 49 min.

What about the “1st / % Compound Remaining” value ([3]; incubation 0 minutes) of the same compound?
The value was 100%.

What about the “2nd / % Compound Remaining” value ([3]; incubation 0 minutes) of the same compound?
Its value is 100%.

What about the “Mean / % Compound Remaining” value ([3]; incubation 0 minutes) of the same compound?
Its value is 100%.

What about the “1st / % Compound Remaining” value ([3]; incubation 30 minutes) of the same compound?
The value was 69.6%.

And the “2nd / % Compound Remaining” value ([3]; incubation 30 minutes)?
The value was 53.9%.

What about the “Mean / % Compound Remaining” value ([3]; incubation 30 minutes) of the same compound?
Its value is 61.7%.

And the “1st / % Compound Remaining” value ([3]; incubation 60 minutes)?
The value was 44.8%.

And the “2nd / % Compound Remaining” value ([3]; incubation 60 minutes)?
The value was 36.9%.

What about the “Mean / % Compound Remaining” value ([3]; incubation 60 minutes) of the same compound?
Its value is 40.9%.

And the “1st / % Compound Remaining” value ([3]; incubation 90 minutes)?
The value was 29.3%.

And the “2nd / % Compound Remaining” value ([3]; incubation 90 minutes)?
The value was 22.6%.

And the “Mean / % Compound Remaining” value ([3]; incubation 90 minutes)?
The value was 26%.

And the “1st / % Compound Remaining” value ([3]; incubation 120 minutes)?
The value was 16.8%.

And the “2nd / % Compound Remaining” value ([3]; incubation 120 minutes)?
The value was 19.6%.

And the “Mean / % Compound Remaining” value ([3]; incubation 120 minutes)?
The value was 18.2%.

What does the source list for `Nc1ncnc2c1ncn2[C@@H]1O[C@H](CO)[C@@H](O)[C@H]1O` [Adenosine]?
β-arrestin2 recruitment by the A3R [4]: β-arrestin2 recruitment; IC50 ([5]; half-maximal response, cAMP inhibition, read-out: pIC50 rA3R (converted)): 0.0676 µM; Range rA3R ([5]; range of response as percentage of response to 10 μM forskolin): 66.05 ± 5.4%; IC50 ([6]; Rattus norvegicus, read-out: IC50 inhibition of synaptic transmission): 20 ± 4.3 µM; depression of the fEPSP ([6]; adenosine 30 µM): 66.7 ± 6.7%; depression of the fEPSP ([6]; adenosine 30 µM in the presence of 2-Cl-IB-MECA 1 µM): 67.5 ± 6.5%; reduction of heart rate [7]: 6.3 ± 0.6 BPM; heart rate after application ([7]; before 41.8 ± 1.3 BPM): 35.5 ± 1.3 BPM; Ki [8]: 1.29 µM; reduction of HR [9]: ~ 66%; reduction of MAP [9]: ~ 47%; MAP after injection ([9]; resting 86 ± 9 mm Hg): 46 ± 4 mm Hg; HR after injection ([9]; resting 432 ± 21 BPM): 147 ± 12 BPM; outward current induced by adenosine [10]: 40.6 ± 2.2 pA

Reference: publication PMC9293909 (Nature Communications, 2022)
